According to ChEMBL document CHEMBL1135011, “Isolation and antimalarial activity of peroxydisulfate oxidation products of primaquine” (Bioorg Med Chem Lett, 2002):

Legend:
[1] = test system: Plasmodium falciparum; test: (§1) Effective concentration for schizonticidal activity against Plasmodium falciparum FDL-HD; assay type: functional, organism-based
[2] = test system: Mus musculus; test: Gametocytocidal activity against Plasmodium yoelii infected mice (2) on intraperitoneal dose of 10 mg/kg at 6 hr of mosquito feeding was determined and average of oocyst determined to find infectivity; assay type: functional
[3] = test system: Plasmodium falciparum; test: (§2) Effective concentration for gametocidal activity against Plasmodium falciparum FDL-HD; assay type: functional
[4] = species on record: Mus musculus; test: Activity by comparing the number of oocytes on midgets of mosquitoes fed on drug treated on mice (1) with those of insects fed on untreated animals at 6 hr of mosquito feeding; 16/20; assay type: functional
[5] = test system: Plasmodium falciparum; test: as §2; assay type: functional, organism-based
[6] = test system: Mus musculus; test: Gametocytocidal activity against Plasmodium yoelii infected mice (2) on intraperitoneal dose of 10 mg/kg at 24 hr of mosquito feeding was determined and average of oocyst determined to find infectivity; assay type: functional
[7] = species on record: Mus musculus; test: Activity by comparing the number of oocytes on midgets of mosquitoes fed on drug treated on mice (1) with those of insects fed on untreated animals at 24 hr of mosquito feeding; 10/12; assay type: functional
[8] = test system: Plasmodium falciparum; test: as §1; assay type: functional
[9] = test system: Mus musculus; test: Tested for in vivo gametocytocidal activity against Plasmodium yoelii infected mice (1), on intraperitoneal dose of 10 mg/kg at +24h of mosquito feeding; Activity = No of Oocytes for infectivity; assay type: functional
[10] = test system: Mus musculus; test: Tested for in vivo gametocytocidal activity against Plasmodium yoelii infected mice, on intraperitoneal dose of 10 mg/kg at -1h of mosquito feeding; Activity = No of Oocytes for infectivity; assay type: functional
[11] = species on record: Mus musculus; test: Activity by comparing the number of oocytes on midgets of mosquitoes fed on drug treated on mice (2) with those of insects fed on untreated animals at -1h of mosquito feeding; 13/15; assay type: functional
[12] = species on record: Mus musculus; test: Activity by comparing the number of oocytes on midgets of mosquitoes fed on drug treated on mice (2) with those of insects fed on untreated animals at -1h of mosquito feeding; 5/15; assay type: functional
[13] = species on record: Mus musculus; test: Activity by comparing the number of oocytes on midgets of mosquitoes fed on drug treated on mice (1) with those of insects fed on untreated animals at -1h of mosquito feeding; 18/20; assay type: functional
[14] = test system: Mus musculus; test: Gametocytocidal activity against Plasmodium yoelii infected mice (2) on intraperitoneal dose of 10 mg/kg at -1h of mosquito feeding was determined and average of oocyst determined to find infectivity; assay type: functional
[15] = species on record: Mus musculus; test: Activity by comparing the number of oocytes on midgets of mosquitoes fed on drug treated on mice (2) with those of insects fed on untreated animals at -1h of mosquito feeding; 12/15; assay type: functional
[16] = test system: Mus musculus; test: Tested for in vivo gametocytocidal activity against Plasmodium yoelii infected mice (1), on intraperitoneal dose of 10 mg/kg at +6h of mosquito feeding; Activity = No of Oocytes for infectivity; assay type: functional
[17] = species on record: Mus musculus; test: Activity by comparing the number of oocytes on midgets of mosquitoes fed on drug treated on 1 mice with those of insects fed on untreated animals at 24 hr of mosquito feeding; 0/20; assay type: functional
[18] = species on record: Mus musculus; test: Activity by comparing the number of oocytes on midgets of mosquitoes fed on drug treated on mice (2) with those of insects fed on untreated animals at 6 hr of mosquito feeding; 0/20; assay type: functional
[19] = species on record: Mus musculus; test: Activity by comparing the number of oocytes on midgets of mosquitoes fed on drug treated on 1 mice with those of insects fed on untreated animals at -1h of mosquito feeding; 15/15; assay type: functional
[20] = species on record: Mus musculus; test: Activity by comparing the number of oocytes on midgets of mosquitoes fed on drug treated on mice (3) with those of insects fed on untreated animals at -1h of mosquito feeding; 8/11; assay type: functional
[21] = species on record: Mus musculus; test: Activity by comparing the number of oocytes on midgets of mosquitoes fed on drug treated on mice (2) with those of insects fed on untreated animals at 24 hr of mosquito feeding; 0/20; assay type: functional
[22] = test system: Mus musculus; test: Gametocytocidal activity against Plasmodium yoelii infected mice (2) on intraperitoneal dose of 10 mg/kg at -1h of mosquito feeding was determined and average of oocysts determined to find infectivity; assay type: functional
[23] = species on record: Mus musculus; test: Activity by comparing the number of oocytes on midgets of mosquitoes fed on drug treated on 1 mice with those of insects fed on untreated animals at 6 hr of mosquito feeding; 0/20; assay type: functional
[24] = species on record: Mus musculus; test: Activity by comparing the number of oocytes on midgets of mosquitoes fed on drug treated on mice (2) with those of insects fed on untreated animals at -1h of mosquito feeding; 16/20; assay type: functional
[25] = species on record: Mus musculus; test: Activity by comparing the number of oocytes on midgets of mosquitoes fed on drug treated on mice (3) with those of insects fed on untreated animals at 6 hr of mosquito feeding; 0/10; assay type: functional
[26] = test system: Mus musculus; test: Gametocytocidal activity against Plasmodium yoelii infected mice (3) on intraperitoneal dose of 10 mg/kg at -1h of mosquito feeding was determined and average of oocysts determined to find infectivity; assay type: functional
[27] = species on record: Mus musculus; test: Activity by comparing the number of oocytes on midgets of mosquitoes fed on drug treated on 1 mice with those of insects fed on untreated animals at -1h of mosquito feeding; 18/20; assay type: functional

| Structure (SMILES) | IC50 [1] [ug well-1] | IC90 [3] [ug well-1] | IC50 [5] [ug well-1] | IC90 [8] [ug well-1] | Activity [10] | also measured |
| --- | --- | --- | --- | --- | --- | --- |
| COc1cc(NC(C)CCCN)c2ncccc2c1-c1c(OC)cc(NC(C)CCCN)c2ncccc12 (stereo unspecified) | 0.031 | 0.062 | 0.036 | 0.19 | >300 | Activity [2]: 221.3; Ratio [4]: 16; Activity [6]: 68.33; Ratio [7]: 10; Activity [9]: >300; Ratio [11]: 13; Ratio [12]: 5; Ratio [13]: 18; Activity [14]: 260.3; Ratio [15]: 12; Activity [16]: >300 |
| COc1cc(NC(C)CCCN)c2ncccc2c1NC(C)CCCN (stereo unspecified) | 0.046 | 0.055 | 0.026 | 0.235 | 315 | Ratio [17]: 0; Ratio [18]: 0; Ratio [19]: 15; Ratio [20]: 8; Ratio [21]: 0; Activity [22]: 240; Ratio [23]: 0; Ratio [24]: 16; Ratio [25]: 0; Activity [26]: 185 |
| COc1c(O)c(NC(C)CCCN)c2ncccc2c1-c1c(OC)c(O)c(NC(C)CCCN)c2ncccc12 (stereo unspecified) | 0.49 | >150 | > 150 | 1.75 | – | – |
| CC(CCCN)N(C(C)CCCN)C(C)CCCN (stereo unspecified) | 0.155 | 0.38 | 0.115 | 0.245 | – | – |
| CC(CCCN)Nc1c(O)c(O)c(NC(C)CCCN)c2ncccc12 (stereo unspecified) | > 50 | >150 | > 150 | >50 | – | – |
| CCN(CC)CCCC(C)Nc1ccnc2cc(Cl)ccc12 (stereo unspecified) [CHLOROQUINE] | 0.011 | – | – | 0.015 | – | – |
| COc1cc(NC(C)CCCN)c2ncccc2c1 (stereo unspecified) [PRIMAQUINE] | – | 0.38 | 0.115 | – | 280.7 | Ratio [17]: 0; Ratio [27]: 18; Ratio [23]: 0 |
